Test results as given in patent publication US5916873A, “Teicoplanin derivatives” (Eli Lilly and Company, priority 1998, dated 1999).
≈ marks a conversion by molar mass, not a printed value.

What was measured:
[1] = test system: vancomycin-sensitive enterococci; assay: mean geometric MIC, vancomycin-sensitive enterococci, broth micro-dilution; assay type: cell-based, Enterococcus faecium and Enterococcus faecalis; settings: Table 3, representative vancomycin-sensitive enterococci
Description: (§1) The antibacterial efficacy of the present teicoplanin derivatives is illustrated by the following tables. The minimal inhibitory concentrations (MICs) were determined using a standard broth micro-dilution assay.

[2] = test system: vancomycin-resistant enterococci; assay: mean geometric MIC, vancomycin-resistant enterococci, broth micro-dilution; assay type: cell-based, Enterococcus faecium and Enterococcus faecalis; settings: Table 3, representative vancomycin-resistant enterococci
Description: as §1

E. f. 2041 = assay: standard broth micro-dilution MIC; assay type: cell-based; settings: Table 2B; strain 2041
Description: as §1

S. aureus 446 = assay: standard broth micro-dilution MIC; assay type: cell-based; settings: Table 2A; strain 446
Description: as §1

S. epi 270 = assay: standard broth micro-dilution MIC; assay type: cell-based; settings: Table 2B; strain 270
Description: as §1

EC14 = assay: standard broth micro-dilution MIC; assay type: cell-based; settings: Table 2C; strain EC14
Description: as §1

S. aureus 447 = assay: standard broth micro-dilution MIC; assay type: cell-based; settings: Table 2A; strain 447
Description: as §1

S. h. 415 = assay: standard broth micro-dilution MIC; assay type: cell-based; settings: Table 2B; strain 415
Description: as §1

S. aureus 489 = assay: standard broth micro-dilution MIC; assay type: cell-based; settings: Table 2A; strain 489
Description: as §1

S. h. 105 = assay: standard broth micro-dilution MIC; assay type: cell-based; settings: Table 2B; strain 105
Description: as §1

S. aureus 491 = assay: standard broth micro-dilution MIC; assay type: cell-based; settings: Table 2A; strain 491
Description: as §1

St. pyro C203 = assay: standard broth micro-dilution MIC; assay type: cell-based; settings: Table 2C; strain C203
Description: as §1

St. pneumo P1 = assay: standard broth micro-dilution MIC; assay type: cell-based; settings: Table 2C; strain P1
Description: as §1

E. f. 180 = assay: standard broth micro-dilution MIC; assay type: cell-based; settings: Table 2B; strain 180
Description: as §1

S. aureus X400 = assay: standard broth micro-dilution MIC; assay type: cell-based; settings: Table 2A; strain X400
Description: as §1

E. f. 180-1 = assay: standard broth micro-dilution MIC; assay type: cell-based; settings: Table 2B; strain 180-1
Description: as §1

S. aureus S13E = assay: standard broth micro-dilution MIC; assay type: cell-based; settings: Table 2A; strain S13E
Description: as §1

S. aureus X778 = assay: standard broth micro-dilution MIC; assay type: cell-based; settings: Table 2A; strain X778
Description: as §1

S. aureus SA1199R = assay: standard broth micro-dilution MIC; assay type: cell-based; settings: Table 2B; strain SA1199R
Description: as §1

E. gall. 245 = assay: standard broth micro-dilution MIC; assay type: cell-based; settings: Table 2C; strain 245
Description: as §1

S. aureus SA1199B = assay: standard broth micro-dilution MIC; assay type: cell-based; settings: Table 2B; strain SA1199B
Description: as §1

E. f. 276 = assay: standard broth micro-dilution MIC; assay type: cell-based; settings: Table 2C; strain 276
Description: as §1

S. aureus SA1199 = assay: standard broth micro-dilution MIC; assay type: cell-based; settings: Table 2A; strain SA1199
Description: as §1

M. cat M12 = assay: standard broth micro-dilution MIC; assay type: cell-based; settings: Table 2C; strain M12
Description: as §1

Row | Molecule | Sens. MIC [1] [mg/L] | Resist. MIC [2] [mg/L] | MIC E. f. 2041 (E. f. 2041) | MIC S. aureus 446 (S. aureus 446) [mg/L] | MIC S. epi 270 (S. epi 270) | MIC EC14 (EC14) [mg/L] | MIC S. aureus 447 (S. aureus 447) [mg/L] | MIC S. h. 415 (S. h. 415) [mg/L] | MIC S. aureus 489 (S. aureus 489) [mg/L] | MIC S. h. 105 (S. h. 105) [mg/L] | MIC S. aureus 491 (S. aureus 491) [mg/L] | MIC St. pyro C203 (St. pyro C203) | MIC St. pneumo P1 (St. pneumo P1) | MIC E. f. 180 (E. f. 180) [mg/L] | MIC S. aureus X400 (S. aureus X400) [mg/L] | MIC E. f. 180-1 (E. f. 180-1) | MIC S. aureus S13E (S. aureus S13E) [mg/L] | MIC S. aureus X778 (S. aureus X778) [mg/L] | MIC S. aureus SA1199R (S. aureus SA1199R) | MIC E. gall. 245 (E. gall. 245) [mg/L] | also measured
1 | CC(=O)NC1C(OC2c3ccc(c(Cl)c3)Oc3cc4cc(c3OC3OC(CO)C(O)C(O)C3NCc3ccc(-c5ccccc5)cc3)Oc3ccc(cc3Cl)CC3NC(=O)C(N)c5ccc(O)c(c5)Oc5cc(O)cc(c5)C(NC3=O)C(=O)NC4C(=O)NC3C(=O)NC2C(=O)NC(C(=O)O)c2cc(O)cc(OC4OC(CO)C(O)C(O)C4O)c2-c2cc3ccc2O)OC(CO)C(O)C1O (stereo not shown) [Example 3, Deacyl Teicoplanin, N^Glu-(4-phenylbenzyl) Derivative] | 4.6 | > 64 |  |  |  |  |  |  |  |  |  |  |  |  |  |  |  |  |  |  | 
2 | CC(=O)NC1C(OC2c3ccc(c(Cl)c3)Oc3cc4cc(c3OC3OC(CO)C(O)C(O)C3NCc3ccc(C=Cc5ccccc5)cc3)Oc3ccc(cc3Cl)CC3NC(=O)C(N)c5ccc(O)c(c5)Oc5cc(O)cc(c5)C(NC3=O)C(=O)NC4C(=O)NC3C(=O)NC2C(=O)NC(C(=O)O)c2cc(O)cc(OC4OC(CO)C(O)C(O)C4O)c2-c2cc3ccc2O)OC(CO)C(O)C1O (stereo not shown) [Example 7] | 0.76 | 19.03 | 0.25 mg/L (≈ 0.13 µM) | 2 (≈ 1.04 µM) | 2 mg/L (≈ 1.04 µM) | > 128 | 2 (≈ 1.04 µM) | 32 (≈ 16.7 µM) | 0.25 (≈ 0.13 µM) | 0.25 (≈ 0.13 µM) | 1 (≈ 0.521 µM) | 0.25 mg/L (≈ 0.13 µM) | ≤ .06 mg/L | 64 (≈ 33.4 µM) | 0.5 (≈ 0.261 µM) | 1 mg/L (≈ 0.521 µM) | 0.5 (≈ 0.261 µM) | 2 (≈ 1.04 µM) |  |  | 
3 | CC(=O)NC1C(OC2c3ccc(c(Cl)c3)Oc3cc4cc(c3OC3OC(CO)C(O)C(O)C3NCc3ccc(C=Cc5ccccc5)cc3)Oc3ccc(cc3Cl)CC3NC(=O)C(NCc5ccc(C=Cc6ccccc6)cc5)c5ccc(O)c(c5)Oc5cc(O)cc(c5)C(NC3=O)C(=O)NC4C(=O)NC3C(=O)NC2C(=O)NC(C(=O)O)c2cc(O)cc(OC4OC(CO)C(O)C(O)C4O)c2-c2cc3ccc2O)OC(CO)C(O)C1O (stereo not shown) [Example 8] | 0.22 | 0.59 | 0.125 mg/L (≈ 0.0592 µM) | 1 (≈ 0.474 µM) | 1 mg/L (≈ 0.474 µM) | > 64 | 1 (≈ 0.474 µM) | > 64 | 0.25 (≈ 0.118 µM) | > 64 | 1 (≈ 0.474 µM) | 0.125 mg/L (≈ 0.0592 µM) | 0.25 mg/L (≈ 0.118 µM) | 0.25 (≈ 0.118 µM) | 1 (≈ 0.474 µM) | 0.125 mg/L (≈ 0.0592 µM) | 2 (≈ 0.948 µM) | 2 (≈ 0.948 µM) | 0.125 mg/L (≈ 0.0592 µM) | 0.25 (≈ 0.118 µM) | MIC S. aureus SA1199B (S. aureus SA1199B): 2 mg/L (≈ 0.948 µM); MIC E. f. 276 (E. f. 276): 0.5 mg/L (≈ 0.237 µM); MIC S. aureus SA1199 (S. aureus SA1199): 4 mg/L (≈ 1.9 µM); MIC M. cat M12 (M. cat M12): 0.25 mg/L (≈ 0.118 µM)
4 | CC(=O)NC1C(OC2c3ccc(c(Cl)c3)Oc3cc4cc(c3OC3OC(CO)C(O)C(O)C3NCc3ccc(Oc5ccccc5)cc3)Oc3ccc(cc3Cl)CC3NC(=O)C(NCc5ccc(Oc6ccccc6)cc5)c5ccc(O)c(c5)Oc5cc(O)cc(c5)C(NC3=O)C(=O)NC4C(=O)NC3C(=O)NC2C(=O)NC(C(=O)O)c2cc(O)cc(OC4OC(CO)C(O)C(O)C4O)c2-c2cc3ccc2O)OC(CO)C(O)C1O (stereo not shown) [Example 10] | 0.19 | 1.7 | ≤ .06 mg/L | 0.25 (≈ 0.12 µM) | 0.5 mg/L (≈ 0.239 µM) | > 64 | 1 (≈ 0.478 µM) | 8 (≈ 3.83 µM) | 0.5 (≈ 0.239 µM) | > 64 | 1 (≈ 0.478 µM) | ≤ .06 mg/L | 0.125 mg/L (≈ 0.0598 µM) | 0.25 (≈ 0.12 µM) | 0.25 (≈ 0.12 µM) | ≤ .06 mg/L | 2 (≈ 0.957 µM) | 0.5 (≈ 0.239 µM) | ≤ .06 mg/L | 0.25 (≈ 0.12 µM) | MIC S. aureus SA1199B (S. aureus SA1199B): 0.5 mg/L (≈ 0.239 µM); MIC E. f. 276 (E. f. 276): 0.5 mg/L (≈ 0.239 µM); MIC S. aureus SA1199 (S. aureus SA1199): 2 mg/L (≈ 0.957 µM); MIC M. cat M12 (M. cat M12): ≤ .06 mg/L
5 | CC(=O)NC1C(OC2c3ccc(c(Cl)c3)Oc3cc4cc(c3OC3OC(CO)C(O)C(O)C3NCc3cccc(Oc5ccccc5)c3)Oc3ccc(cc3Cl)CC3NC(=O)C(NCc5cccc(Oc6ccccc6)c5)c5ccc(O)c(c5)Oc5cc(O)cc(c5)C(NC3=O)C(=O)NC4C(=O)NC3C(=O)NC2C(=O)NC(C(=O)O)c2cc(O)cc(OC4OC(CO)C(O)C(O)C4O)c2-c2cc3ccc2O)OC(CO)C(O)C1O (stereo not shown) [Example 11] | 0.11 | 3.4 | ≤ .06 mg/L | 2 (≈ 0.957 µM) | ≤ .06 mg/L | > 64 | 1 (≈ 0.478 µM) | 16 (≈ 7.66 µM) | 1 (≈ 0.478 µM) | > 64 | 0.25 (≈ 0.12 µM) | ≤ .06 mg/L | ≤ .06 mg/L | 1 (≈ 0.478 µM) | 0.5 (≈ 0.239 µM) | 0.25 mg/L (≈ 0.12 µM) | 2 (≈ 0.957 µM) | 0.25 (≈ 0.12 µM) | ≤ .06 mg/L | 0.125 (≈ 0.0598 µM) | MIC S. aureus SA1199B (S. aureus SA1199B): 0.25 mg/L (≈ 0.12 µM); MIC E. f. 276 (E. f. 276): 0.25 mg/L (≈ 0.12 µM); MIC S. aureus SA1199 (S. aureus SA1199): 0.5 mg/L (≈ 0.239 µM); MIC M. cat M12 (M. cat M12): ≤ .06 mg/L
6 | CC(=O)NC1C(OC2c3ccc(c(Cl)c3)Oc3cc4cc(c3OC3OC(CO)C(O)C(O)C3NCc3ccc(OC(F)(F)F)cc3)Oc3ccc(cc3Cl)CC3NC(=O)C(NCc5ccc(OC(F)(F)F)cc5)c5ccc(O)c(c5)Oc5cc(O)cc(c5)C(NC3=O)C(=O)NC4C(=O)NC3C(=O)NC2C(=O)NC(C(=O)O)c2cc(O)cc(OC4OC(CO)C(O)C(O)C4O)c2-c2cc3ccc2O)OC(CO)C(O)C1O (stereo not shown) [Example 13] | 0.25 | 45 |  | 1 (≈ 0.482 µM) | 0.5 mg/L (≈ 0.241 µM) | > 128 | 1 (≈ 0.482 µM) | 8 (≈ 3.86 µM) | 0.5 (≈ 0.241 µM) | 32 (≈ 15.4 µM) | 0.5 (≈ 0.241 µM) | ≤ .06 mg/L | 0.05 mg/L (≈ 0.0241 µM) | 4 (≈ 1.93 µM) | 0.5 (≈ 0.241 µM) |  | 1 (≈ 0.482 µM) | 1 (≈ 0.482 µM) |  |  | 
7 | CC(=O)NC1C(OC2c3ccc(c(Cl)c3)Oc3cc4cc(c3OC3OC(CO)C(O)C(O)C3NCc3ccc(OC(F)(F)F)cc3)Oc3ccc(cc3Cl)CC3NC(=O)C(N)c5ccc(O)c(c5)Oc5cc(O)cc(c5)C(NC3=O)C(=O)NC4C(=O)NC3C(=O)NC2C(=O)NC(C(=O)O)c2cc(O)cc(OC4OC(CO)C(O)C(O)C4O)c2-c2cc3ccc2O)OC(CO)C(O)C1O (stereo not shown) [Example 14] | 5.28 | > 32 | 8 mg/L (≈ 4.21 µM) | 4 (≈ 2.11 µM) | 2 mg/L (≈ 1.05 µM) | > 128 | 8 (≈ 4.21 µM) | > 128 | 2 (≈ 1.05 µM) | 1 (≈ 0.526 µM) | 2 (≈ 1.05 µM) | 1 mg/L (≈ 0.526 µM) | 1 mg/L (≈ 0.526 µM) | > 128 | 2 (≈ 1.05 µM) | 8 mg/L (≈ 4.21 µM) | 2 (≈ 1.05 µM) | 4 (≈ 2.11 µM) |  |  | 
8 | Deacyl Teicoplanin, Bis(10-undecen-1-yl) Derivative [Example 4] | 1.5 | 1.2 |  | 4 | 2 mg/L | > 128 | 8 | 16 | 2 | 16 | 4 | 0.5 mg/L | 1 mg/L | 8 | 2 |  | 2 | 4 |  |  | 
